Data reported in patent US20260008784A1 (VASTHERA CO., LTD., priority 2022, published 2026).

Key:
[1] = system: SuHx rat model of pulmonary arterial hypertension; assay: Sugen/hypoxia (SuHx) rat model of pulmonary arterial hypertension; type: in vivo; settings: P.O., once daily, 0.1 mg/kg, 5 weeks; for RV hypertrophy (Fulton's index) / Right ventricular systolic pressure (RVSP): compared to vehicle control group, FIG. 7
Experimental: The rat study protocol was approved by the Institutional Animal Care and Use Committee of the Ewha Womans University, Republic of Korea, and conforms to the ARRIVE guidelines. Six-week-old rats were acclimatized for one week in the laboratory. Then, Sugen 5416 (Sigma Aldrich) was subcutaneously injected at a dose of 20 mg/kg. The administered subjects were maintained in a normobaric hypoxic (10% O2) chamber (A chamber, Biosphenix) for 3 weeks. Rats were transferred to normoxia and orally administered with either control vehicle or test compounds for additional 5 weeks (P.O., once daily, 0.1 mg per kg weight).
Right ventricular systolic pressure (RVSP) was measured by […] using a curved catheter equipped with PowerLab2/26 device (AD Instruments, UK). Rats were anesthetized with 2% isoflurane inhalation. A catheter was inserted through the right jugular vein, the pressure was measured for 10 seconds with stabilized pattern. After […], rats were perfused with saline, and the heart was carefully removed. The removed heart was dissected into the right ventricle (RV), the rest of the septum (S; septum), and the left ventricle (LV). Each piece of heart was weighed using a microbalance. The RV/(LV+S) value was calculated and represented as a right ventricular hypertrophy index (Fulton's index).
Rats were anesthetized with 2% isoflurane inhalation and subjected to transcardiac perfusion-fixation with heparinized saline solution containing […]. Then, left lung lobes were incised and fixed in 10% NBF for 3 days. The fixed tissues were paraffin-embedded and sectioned using a rotary microtome (Leica HistoCore MULTICUT). Two serial tissue sections (4 μm thick) were placed a slide glass and stained with hematoxylin and eosin (HE). For analysis, ˜100 pulmonary arteries (diameter 20-100 μm) per tissue section were chosen for measurement. The luminal, internal elastic laminal, and external elastic laminal areas were quantified using NIH ImageJ v1.62. The intimal and medial areas were determined by subtraction of the luminal area from the internal elastic area and by subtracting the internal elastic area from the external elastic area. The values were averaged and used for calculating pulmonary arterial vessel thickness.
Paraffin sections were blocked with 5% normal donkey serum (Vector Laboratories) in PBST (PBS solution of 0.3% Triton X-100) for 1 h at room temperature. Thereafter, lung tissue sections were incubated with […] for Alexa Fluor 568-conjugated smooth muscle actin (α-SMA; 1:300 dilution) and Alexa Fluor 488-conjugated von Willebrand Factor (vWF; 1:200 dilution) at 4° C. for 12 h. Subsequently, nuclei were counterstained with DAPI. Fluorescence images were recorded in random regions of at least 10 pulmonary artery vessels (diameter 20-100 um) per tissue section at a screen magnification of 60× using an LSM 880 confocal microscope equipped with argon and helium-neon lasers.
The therapeutic effect of new compounds on pulmonary arterial hypertension was evaluated in a preclinical SuHx rat model. For establishing PAH model, rats were administered with Sugen (VEGFR2 inhibitor) and placed in a normobaric hypoxic condition (10% O2) for 3 weeks. Rats were moved to normoxic condition and orally administered with control vehicle or compound 1 or 8 (P.O., once daily, 0.1 mg/kg) for 5 weeks. Thereafter, right ventricular systolic pressure (RVSP) and right ventricular hypertrophy (Fulton's index) were measured at the end of treatment.

in vitro [2] = settings: human
Experimental: (§2) For cytotoxicity analysis, human aortic endothelial cells (HAEC) and smooth muscle cells (HASMC) were seeded in a 96-well culture plate at density of 4000 cells/well in a final volume of 100 μL. Cells were cultured for 24 h and serum-starved for an additional 18 h. Test compounds were serially diluted with EBM-2 culture medium, added to the plate at 100 μL/well, and further incubated for 24 h. The number of viable cells was measured using the WST-1 cell viability assay kit (Roche Diagnostics, USA). Cell number was expressed as absorbance values at 450 nm after subtracting the turbidity value at 600 nm. The absorbance values from three replicate wells were averaged.
(§3) After treatment with ascending concentrations of each compound, the concentration of test compound corresponding to 50% cell viability (CC50) was measured.

in vitro [3] = settings: human; remark: listed apart in the source
Experimental: as §2, §3

[4] = system: VEGF-induced tyrosine phosphorylation and ERK2 phosphorylation in PAEC; assay: Immunoblot of VEGF-mediated signaling in PrxII knock-down PAEC; type: cell-based, human; settings: PAECs, VEGF stimulation, FIG. 6
Experimental: (§1) Cells were quickly washed in ice-cold phosphate-buffered saline (PBS) and lysed in extraction buffer containing 20 mM Hepes (pH 7.0), 1% Triton X-100, 150 mM NaCl, 10% glycerol, 1 mM EDTA, 2 mM EGTA, and 1 mM DTT, 5 mM Na3VO4, 5 mM NaF, 1 mM AEBSF, aprotinin (5 μg/mL), and leupeptin (5 μg/mL). After cen-trifugation at 12,000×g, the clarified cell extracts were used for immunoblotting. For re-blotting, the immunoblots were retrieved in a solution of 67 mM Tris (pH 6.7), 2% SDS, and 100 mM 2-mercaptoethanol at 60° C. for 30 min to remove antibodies and rinsed three times with a Tris-buffered saline (TBS) solution containing 1% Triton X-100. The retrieved membranes were subjected to new immunoblotting.
In human aortic endothelial cell (HAEC) and human pulmonary artery endothelial cell (PAEC) in which PrxII was knocked out by transfecting the PrxII siRNA, the ability of test compounds to replace the cellular function of PrxII was evaluated. That is, the efficacy of the new compounds was verified in terms of signaling pathways induced by VEGF that regulates the growth and migration of vascular endothelial cells in the aorta and pulmonary artery. Activation of VEGF-induced signaling pathway was analyzed by an immunoblot method using an antibody that specifically recognizes phosphorylation of Tyr 1175, which is a major phosphorylation site on VEGF receptor-2 (VEGFR2).

[5] = system: PDGF-induced tyrosine phosphorylation and PLC-γ1 phosphorylation in PASMC; assay: Immunoblot of PDGF-mediated signaling in PrxII knock-down PASMC; type: cell-based, human; settings: PASMCs, PDGF stimulation, FIG. 3
Experimental: as §1
In human aortic smooth muscle cell (HASMC) and human pulmonary artery smooth muscle cell (PASMC) in which PrxII was knocked out by transfecting the PrxII siRNA, the ability of test compounds to replace the cellular function of PrxII was evaluated. That is, the efficacy of the new compounds was verified in terms of signaling pathways induced by PDGF that regulates the growth and migration of vascular smooth muscle cells in the aorta and pulmonary artery. Activation of PDGF-induced signaling pathway was analyzed by an immunoblot method using an antibody that specifically recognizes phosphorylation of Tyr 857, which is a major phosphorylation site on PDGF receptor (PDGFRβ).

Row | Structure (SMILES) | Pulmonary arterial vessel occlusion (histology) ([1]; FIG. 8) | RV hypertrophy (Fulton's index) [1] | Right ventricular systolic pressure (RVSP) [1] | Endothelial layer (vWF-labeled ECs) in pulmonary arterial vessels ([1]; immunostaining, FIG. 9) | Medial thickness (SMA-labeled SMCs) in pulmonary arterial vessels ([1]; immunostaining, FIG. 9) | CC50 (in vitro [2]) [µM] | CC50 (in vitro [3]) [µM] | Effect on total tyrosine phosphorylation and phosphorylation of signaling proteins downstream of VEGFR2 [4] | Effect on total tyrosine phosphorylation and phosphorylation of signaling proteins downstream of PDGFRβ [5]
1 | CN1C(=O)C2(C)SSCC1C(=O)N2C (centres unmarked) [Compound 1, 1,6,8-trimethyl-2,3-dithia-6,8-diazabicyclo[3.2.2]nonane-7,9-dione] | widens the pulmonary arterial vessels | significantly reduces | significantly reduces | induces the recovery of endothelial layer | reduction of medial thickness | > 500 | > 500 | – | –
2 | O=C1C2CSSC3(COCCN13)C(=O)N2Cc1ccccc1 (centres unmarked) [Compound 8, 12-benzyltetrahydro-5H,10H-4,10a-(epiminomethano)[1,4]oxazino[3,4-c][1,2,4]dithia zepine-5,11-dione] | – | significantly reduces | significantly reduces | – | – | – | – | significantly inhibits the protein phosphorylation | significantly inhibits the protein phosphorylation
